Experiment [1] concerns the target T1, VDR (Homo sapiens, UniProt P11473).
T1 construct: -CMV-VDR-LBD coding for the hinge region and; expressed in transfected cells; host or cells: HEK293T
T1 sequence (P11473 127-423 limits assumed): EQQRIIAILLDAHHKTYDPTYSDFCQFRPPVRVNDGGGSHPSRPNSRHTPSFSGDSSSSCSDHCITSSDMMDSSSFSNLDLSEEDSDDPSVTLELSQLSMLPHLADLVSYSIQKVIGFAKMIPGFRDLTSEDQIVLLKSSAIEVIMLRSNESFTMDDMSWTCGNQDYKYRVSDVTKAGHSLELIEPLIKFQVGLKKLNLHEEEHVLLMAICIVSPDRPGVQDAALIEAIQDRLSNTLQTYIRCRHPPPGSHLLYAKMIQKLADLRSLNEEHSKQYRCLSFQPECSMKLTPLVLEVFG
Kind of experiment: Gal4‐VDR hybrid reporter gene assay, agonist mode. It is filed as cell-based. To be noted: HEK293T cells, mean±S.E.M., n≥3. As to the method: FIGURE 2 Development and characterization of the light‐activated vitamin D mimetic photo‐vitD (10). (a) Structure activity relationship of photo‐switchable VDR agonists 4–10. Compounds were tested in a cellular Gal4‐VDR hybrid reporter gene assay. Relative activation is normalized to the effect of 2 (1 µM) set as 100% activation. The (Z)‐states of the compounds were maintained with a Cell‐Disco [24] (370 nm). […] Data in agonist (EC50) and antagonist mode (IC50; vs. 0.3 µM 2) are shown for (E)‐ and (Z)‐10. The corresponding dose‐response curves are shown in (d). (b) Predicted binding mode of (E)‐7 (green) in the VDR ligand binding site (pdb ID 4g1d). […] (c) Predicted binding mode of (Z)‐10 (yellow) in the VDR ligand binding site. The altered regiochemistry conveys strong preference for the light‐induced (Z)‐configuration and the extended naphthoic acid motif enables a strong ionic contact to R302. (d) Dose‐response curves of (E)‐ (dark) and (Z)‐10 (370 nm) in the Gal4‐VDR reporter gene assay in agonist (top) and antagonist mode (bottom, with 0.3 µM calcitriol (2)). (Z)‐10 activated VDR; (E)‐10 and (Z)‐10 antagonized VDR activation by 0.3 µM calcitriol (2). (Z)‐10 was maintained with a Cell‐Disco [24] (370 nm). Data are the mean±S.E.M. relative VDR act. vs. 0.3 µM calcitriol (2), n≥3. (e) Activity profile of 10 (1 µM) on nuclear receptors showing exclusive VDR activation by the light‐activated state. 10 was tested in a panel of uniform Gal4‐NR hybrid reporter gene assays. (Z)‐10 was maintained with a Cell‐Disco [24] (370 nm). Data are the mean±SD, n = 3. (f) Representative UV/Vis spectra of 10 as (E)‐ (dark) and (Z)‐states (PSS 365 nm), and after switching back to (E) with 465 nm. (g) (E)/(Z)‐ratios of 10 in the dark‐adapted state, after illumination at 365 nm for 5 min and after switching back from mostly‐(Z) with 465 nm for 5 min. (h) 10 could be rapidly and reversibly switched between the (E)‐ and (Z)‐states over multiple cycles by alternating irradiation at 365 and 465 nm. Absorbance was measured at 351 nm with a 25 µM solution in DMSO, one cycle is 30 sec. […] 10 was pre‐illuminated at 365 nm for 30 min and then kept in the dark. (E)/(Z) ratios were measured by NMR. (j) Binding mode prediction of (E)‐ and (Z)‐10 to the VDR‐antagonist complex 2zxm (residues numbered according to [21]). (Z)‐10 (yellow) forms an agonist‐like binding mode with several polar interactions at both ends of the pocket. (E)‐10 (cyan) is also anchored at the distal end of the pocket by an H‐bond network with R302 and the D176 backbone but due to the (E)‐configuration, the β‐naphthoic acid residue protrudes deeper and the pentan‐3‐ol motif rotates away from H333/H423. Therefore, (E)‐10 lacks stabilizing/activating contacts with the H333/H423 region rationalizing its antagonist properties.
Gal4-hybrid reporter gene assays. Reporter gene assays were performed in HEK293T cells (German Collection of Microorganisms and Cell Culture GmbH, DSMZ) as reported previously using Gal4 -NR LBD fusion receptor plasmids each coding for the hinge region and LBD of the canonical isoform of the respective human nuclear receptor.[7,8] pFR-Luc (Stratagene, La Jolla, CA, USA) served as a reporter plasmid and pRL-SV40 (Promega, Madison, WI, USA) was used for normalization of transfection efficiency and test compound toxicity. Cells were cultured in Dulbecco’s modified Eagle’s medium (DMEM), high glucose supplemented with 10% fetal calf serum (FCS), sodium pyruvate (1 mM), penicillin (100 U/mL), and streptomycin (100 μg/mL) at 37 °C and 5% CO2, and seeded in 96-well plates (3 × 10^4 cells/well). After 24 h, the medium was changed to Opti -MEM without supplements, and cells were transiently transfected using Lipofectamine LTX reagent (Invitrogen, Carlsbad, CA, USA) according to the manufacturer’s protocol. Five hours after transfection, cells were incubated with the test compounds […]

Experiment [2] relates to nuclear receptors related to VDR. Briefly: panel of uniform Gal4‐NR hybrid reporter gene assays (selectivity). To be noted: 1 µM; both (E)‐ and (Z)‐configuration; (Z) maintained with Cell‐Disco (370 nm). It is filed as cell-based, human. As to the method:
FIGURE 2 Development and characterization of the light‐activated vitamin D mimetic photo‐vitD (10). (a) Structure activity relationship of photo‐switchable VDR agonists 4–10. Compounds were tested in a cellular Gal4‐VDR hybrid reporter gene assay. Relative activation is normalized to the effect of 2 (1 µM) set as 100% activation. The (Z)‐states of the compounds were maintained with a Cell‐Disco [24] (370 nm). […] Data in agonist (EC50) and antagonist mode (IC50; vs. 0.3 µM 2) are shown for (E)‐ and (Z)‐10. The corresponding dose‐response curves are shown in (d). (b) Predicted binding mode of (E)‐7 (green) in the VDR ligand binding site (pdb ID 4g1d). […] (c) Predicted binding mode of (Z)‐10 (yellow) in the VDR ligand binding site. The altered regiochemistry conveys strong preference for the light‐induced (Z)‐configuration and the extended naphthoic acid motif enables a strong ionic contact to R302. (d) Dose‐response curves of (E)‐ (dark) and (Z)‐10 (370 nm) in the Gal4‐VDR reporter gene assay in agonist (top) and antagonist mode (bottom, with 0.3 µM calcitriol (2)). (Z)‐10 activated VDR; (E)‐10 and (Z)‐10 antagonized VDR activation by 0.3 µM calcitriol (2). (Z)‐10 was maintained with a Cell‐Disco [24] (370 nm). […] Absorbance was measured at 351 nm with a 25 µM solution in DMSO, one cycle is 30 sec. […] (E)/(Z) ratios were measured by NMR. […]

pEC50: −log10 of the molar value. Read-outs that look alike come from different tables or passages of the source. Some results are limits rather than exact numbers.

In the case of `CCCc1cc(C(O)(CC)CC)ccc1-c1ccc(/N=N/c2ccc3cc(C(=O)O)ccc3c2)cc1C` [compound 10], the negative logarithm of the EC50 (pEC50) was 6.77 in experiment [1] ((Z)‐state maintained with Cell‐Disco (370 nm), read-out: VDR modulation light-activated (Z): EC50) and less than 5.00 in experiment [1] (dark‐adapted (E)‐state, read-out: VDR modulation dark (E): EC50). Further, the “activity on nuclear receptors related to VDR” value in experiment [2] is “no activity”.

(Values after publication PMC13360702, “An Agonist/Antagonist Photo‐Switchable Vitamin D Mimetic Enables Bidirectional Optical Control of VDR” (Angewandte Chemie (International Ed. in English), 2026).)
